According to PubChem BioAssay AID248 (DTP/NCI, 2004):
“And” between values parts separate entries of the source, which are not always exact repeats. Equal values may be shown once. Inconclusive results and toxic doses are left out. Rule as the data show it: active = T/C of 150% or more; inactive = T/C below 125%.

System: L1210 leukemia ip in BDF1 mice, survival T/C
Assay: NCI In Vivo Anticancer Drug Screen. Data for tumor model L1210 Leukemia (intraperitoneal) in B6D2F1 (BDF1) mice
Details: endpoint: mean survival time, higher = longer survival
How it was run: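 Transplantable tumor model; survival measured in treated vs vehicle control mice. Value = treated/control.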

[1] = dose: 100.0 mg/kg/injection, schedule: Q01DX009 (ip), vehicle: saline with Tween-80
[2] = dose: 200.0 mg/kg/injection, schedule: Q01DX009 (ip), vehicle: saline with Tween-80
[3] = dose: 100.0 mg/kg/injection, schedule: Q01DX001 (ip), vehicle: carboxymethylcellulose (CMC)
[4] = dose: 200.0 mg/kg/injection, schedule: Q01DX001 (ip), vehicle: carboxymethylcellulose (CMC)
[5] = dose: 100.0 mg/kg/injection, schedule: Q01DX001 (ip), vehicle: saline
[6] = dose: 200.0 mg/kg/injection, schedule: Q01DX001 (ip), vehicle: saline
[7] = dose: 400.0 mg/kg/injection, schedule: Q01DX001 (ip), vehicle: saline
[8] = dose: 50.0 mg/kg/injection, schedule: Q01DX001 (ip), vehicle: carboxymethylcellulose (CMC)
[9] = dose: 50.0 mg/kg/injection, schedule: Q01DX009 (ip), vehicle: saline with Tween-80

Measured: T/C

O=C(CC(NC(=O)OCc1ccccc1)C(=O)O)OCc1ccccc1 (stereo unspecified)
inactive: dose: 100.0 mg/kg/injection, schedule: Q01DX009 (ip), vehicle: saline sonified 95 % of control | [1] 103 % of control | dose: 100.0 mg/kg/injection, schedule: Q04DX003 (ip), vehicle: saline sonified 97 % of control | dose: 200.0 mg/kg/injection, schedule: Q01DX009 (ip), vehicle: saline sonified 94 % of control | [2] 94 % of control | dose: 200.0 mg/kg/injection, schedule: Q04DX003 (ip), vehicle: saline sonified 89 % of control | dose: 400.0 mg/kg/injection, schedule: Q01DX009 (ip), vehicle: saline sonified 90 % of control | dose: 400.0 mg/kg/injection, schedule: Q01DX009 (ip), vehicle: saline with Tween-80 94 % of control | dose: 400.0 mg/kg/injection, schedule: Q04DX003 (ip), vehicle: saline sonified 103 % of control

CC1(C)CN1c1nc(N2CC2(C)C)nc(N2CC2(C)C)n1
inactive: dose: 44.0 mg/kg/injection, schedule: Q01DX001 (ip), vehicle: carboxymethylcellulose (CMC) 106 % of control and 108 % of control | dose: 66.0 mg/kg/injection, schedule: Q01DX001 (ip), vehicle: carboxymethylcellulose (CMC) 106 % of control and 108 % of control | [3] 113 % of control and 120 % of control | dose: 150.0 mg/kg/injection, schedule: Q01DX001 (ip), vehicle: carboxymethylcellulose (CMC) 116 % of control and 118 % of control | [4] 118 % of control

CC(=O)CC(=O)C(F)(F)F.CC(=O)CC(=O)C(F)(F)F.CC(=O)CC(=O)C(F)(F)F.CC(=O)CC(=O)C(F)(F)F.[Hf]
inactive: dose: 100.0 mg/kg/injection, schedule: Q04DX002 (ip), vehicle: Klucel (hydroxypropylcellulose) (HPC) 104 % of control | dose: 200.0 mg/kg/injection, schedule: Q04DX002 (ip), vehicle: Klucel (hydroxypropylcellulose) (HPC) 93 % of control | dose: 400.0 mg/kg/injection, schedule: Q04DX002 (ip), vehicle: Klucel (hydroxypropylcellulose) (HPC) 96 % of control

CCOC(=O)c1ccc(NC(=S)NCc2cccnc2)cc1
inactive: dose: 100.0 mg/kg/injection, schedule: Q01DX009 (ip), vehicle: Klucel (hydroxypropylcellulose) (HPC) 106 % of control | dose: 200.0 mg/kg/injection, schedule: Q01DX009 (ip), vehicle: Klucel (hydroxypropylcellulose) (HPC) 97 % of control | dose: 400.0 mg/kg/injection, schedule: Q01DX009 (ip), vehicle: Klucel (hydroxypropylcellulose) (HPC) 102 % of control

O=C(c1ccc2cc(Cl)c3ccccc3c2c1)C(Br)CBr (stereo unspecified)
inactive: dose: 55.0 mg/kg/injection, schedule: Q01DX Z (ip), vehicle: methylcellulose (MC) 88 % of control | dose: 83.0 mg/kg/injection, schedule: Q01DX Z (ip), vehicle: methylcellulose (MC) 93 % of control | dose: 125.0 mg/kg/injection, schedule: Q01DX Z (ip), vehicle: methylcellulose (MC) 93 % of control

CCCC(C)C(C)CC (stereo unspecified)
inactive: dose: 25.0 mg/kg/injection, schedule: Q01DX001 (ip), vehicle: saline sonified 107 % of control | dose: 50.0 mg/kg/injection, schedule: Q01DX001 (ip), vehicle: saline sonified 98 % of control | dose: 100.0 mg/kg/injection, schedule: Q01DX001 (ip), vehicle: saline sonified 93 % of control

COC(=O)C1C2CCc3cc(OC)ccc3C2=CCC1C(OC)OC (stereo unspecified)
inactive: dose: 100.0 mg/kg/injection, schedule: Q04DX003 (ip), vehicle: Klucel (hydroxypropylcellulose) (HPC) 89 % of control | dose: 200.0 mg/kg/injection, schedule: Q04DX003 (ip), vehicle: Klucel (hydroxypropylcellulose) (HPC) 89 % of control | dose: 400.0 mg/kg/injection, schedule: Q04DX003 (ip), vehicle: Klucel (hydroxypropylcellulose) (HPC) 89 % of control

O=c1[nH]cc(CCOCc2ccccc2)c(=O)[nH]1
inactive: [5] 103 % of control | [6] 94 % of control | [7] 103 % of control

O=C(Nc1ccc(C(=O)O)c(O)c1)Nc1ccccc1C(F)(F)F
inactive: [8] 92 % of control | dose: 50.0 mg/kg/injection, schedule: Q01DX009 (ip), vehicle: carboxymethylcellulose (CMC) 100 % of control and 106 % of control | dose: 50.0 mg/kg/injection, schedule: Q04DX003 (ip), vehicle: carboxymethylcellulose (CMC) 93 % of control | [3] 101 % of control | dose: 100.0 mg/kg/injection, schedule: Q01DX009 (ip), vehicle: carboxymethylcellulose (CMC) 105 % of control and 92 % of control | dose: 100.0 mg/kg/injection, schedule: Q04DX002 (ip), vehicle: carboxymethylcellulose (CMC) 94 % of control and 97 % of control | dose: 100.0 mg/kg/injection, schedule: Q04DX003 (ip), vehicle: carboxymethylcellulose (CMC) 88 % of control | [4] 97 % of control | dose: 200.0 mg/kg/injection, schedule: Q01DX009 (ip), vehicle: carboxymethylcellulose (CMC) 91 % of control and 92 % of control | dose: 200.0 mg/kg/injection, schedule: Q04DX002 (ip), vehicle: carboxymethylcellulose (CMC) 101 % of control and 108 % of control | dose: 200.0 mg/kg/injection, schedule: Q04DX003 (ip), vehicle: carboxymethylcellulose (CMC) 89 % of control | dose: 400.0 mg/kg/injection, schedule: Q04DX002 (ip), vehicle: carboxymethylcellulose (CMC) 103 % of control

CN(C)N=Nc1cc(Cl)cc(C(N)=O)c1Cl
inactive: dose: 100.0 mg/kg/injection, schedule: Q01DX001 (ip), vehicle: saline with Tween-80 106 % of control | [1] 103 % of control | dose: 200.0 mg/kg/injection, schedule: Q01DX001 (ip), vehicle: saline with Tween-80 101 % of control | [2] 121 % of control | dose: 400.0 mg/kg/injection, schedule: Q01DX001 (ip), vehicle: saline with Tween-80 119 % of control

O/N=C\c1cc[n+](CC[n+]2ccc(/C=N/O)cc2)cc1
inactive: dose: 100.0 mg/kg/injection, schedule: Q04DX002 (ip), vehicle: other 112 % of control

c1ccc(-c2cc3c(-c4ccccc4)c4ccccc4c(-c4ccccc4)c3cc2-c2ccccc2)cc1
inactive: [9] 96 % of control | [1] 96 % of control | [2] 108 % of control

C1=CC2(C=C1)OC21CCC2(C=CC3(C2)OC3C2CCCCC2)CC1 (stereo unspecified)
inactive: [9] 94 % of control | [1] 94 % of control

CCN(CC)CCOc1ccc(C=Nc2ccc(I)cc2)cc1
inactive: dose: 100.0 mg/kg/injection, schedule: Q04DX003 (ip), vehicle: other 97 % of control | dose: 200.0 mg/kg/injection, schedule: Q04DX003 (ip), vehicle: other 98 % of control | dose: 400.0 mg/kg/injection, schedule: Q04DX003 (ip), vehicle: other 95 % of control

O=C1C(=O)c2cc(Br)ccc2-c2ccc(Br)cc21
inactive: [8] 107 % of control | [3] 107 % of control | [4] 100 % of control | dose: 400.0 mg/kg/injection, schedule: Q01DX001 (ip), vehicle: carboxymethylcellulose (CMC) 89 % of control

Cc1cc(=O)[nH]c(=O)n1C1OC(CO)C(O)C1O (stereo unspecified)
inactive: [5] 108 % of control | [6] 102 % of control | [7] 98 % of control

N#Cc1cnn(C(N)=S)c1N
inactive: dose: 25.0 mg/kg/injection, schedule: Q01DX009 (ip), vehicle: saline 88 % of control | dose: 25.0 mg/kg/injection, schedule: Q04DX003 (ip), vehicle: saline 94 % of control | dose: 50.0 mg/kg/injection, schedule: Q01DX009 (ip), vehicle: saline 97 % of control | dose: 50.0 mg/kg/injection, schedule: Q04DX003 (ip), vehicle: saline 110 % of control | dose: 100.0 mg/kg/injection, schedule: Q04DX003 (ip), vehicle: saline 98 % of control

O=[N+]([O-])c1ccccc1N=P(c1ccccc1)(c1ccccc1)c1ccccc1
inactive: dose: 50.0 mg/kg/injection, schedule: Q01DX009 (ip), vehicle: DMSO 91 % of control | dose: 100.0 mg/kg/injection, schedule: Q01DX009 (ip), vehicle: DMSO 88 % of control | dose: 100.0 mg/kg/injection, schedule: Q04DX003 (ip), vehicle: DMSO 93 % of control | dose: 200.0 mg/kg/injection, schedule: Q04DX003 (ip), vehicle: DMSO 93 % of control

CCOC(=O)c1cc2ccccc2c2ccccc12
inactive: dose: 100.0 mg/kg/injection, schedule: Q04DX003 (ip), vehicle: saline with Tween-80 98 % of control | dose: 200.0 mg/kg/injection, schedule: Q04DX003 (ip), vehicle: saline with Tween-80 95 % of control | dose: 400.0 mg/kg/injection, schedule: Q04DX003 (ip), vehicle: saline with Tween-80 98 % of control

CCCCCCCCCCCCc1ccccc1
inactive: dose: 50.0 mg/kg/injection, schedule: Q01DX001 (ip), vehicle: saline 91 % of control | [5] 97 % of control | [6] 97 % of control | [7] 101 % of control
